From patent US5252482A, “Precursor of a C-terminal amidated calcitonin” (Suntory Limited, priority 1982, dated 1993)
Bridge positions count the residues as written; N and C are the ends. Peptide text beside a SMILES is read from it.

System: Male Wistar strain rats
Test: serum calcium lowering effect in rats
Type: in vivo, rat
Details: for Change in serum Ca level: 4.5 μg/rat subcutaneously, mean of 4 rats
Experimental: The biological activities of HPCT and HPCT Cp(1-3S purified by the above-mentioned procedure were assayed using the serum calcium lowering effect in rats as an indicator.
Male Wistar strain rats weighing 300 to 350 grams were fasted overnight and used. Each animal was secured in supine position and under ether anesthesia, a polyethylene tube (Intramedic® PE-50, Clay Adams) filled with heparin sodium injection J. P. (Japan-Upjohn) was inserted into the femoral artery of the right hind leg. The rat was fixed in a Boleman cage, and 30 minutes after awakening of the animal, 0.5 ml of the blood was withdrawn through the above polyethylene tube inserted into the femoral artery into a polyethylene centrifugal tube containing 50 units of heparin sodium. Immediately thereafter 0.2 ml of the under-mentioned physiological saline, HPCT. HPCT.Cp(1-33) or swine calcitonin solution was administered subcutaneously at the back of the animal. Then, 1, 2, 4 and 6 hours after the administration, 0.5 ml each of the blood was taken through the above-mentioned polyethylene tube. The blood thus taken was promptly centrifuged on an Eppendorf microcentrifuge (Eppendorf 5414) at 13,000 r.p.m. for 1 minute and the supernatant was used as serum fraction.
The blood calcium level was measured by the o-cresolphthalein complexon method using a commercial calcium assay kit RM117-K (Ca SET) (Yatron). Fifty μl of the serum was taken in a test tube and stirred with 0.5 ml of the color reagent containing o-cresolphthalein complexon and 8-hydroxyquinoline (RM117-2). Then, 5.0 ml of monoethanolamine borate buffer (RM117-1) was added and stirred. Within 90 minutes thereafter, the absorbance was measured with a self-recording spectrophotometer (Hitachi 320) at the wavelength of 575 mu. The concentration of calcium was calculated from this absorbance value.
The methods used in the preparation of the physiological saline solution, HPCT solution, HPCT. Cp(1-3S) solution and swine calcitonin solution employed are as follows.
a) Physiological saline solution: Bovine serum albumin (Sigma®) was dissolved in physiological saline J. P. (Ohtsuka Pharmaceutical Co.) at room temperature to the albumin concentration of 0.1%.
b) HPCT solution: HPCT was diluted with the above-mentioned physiological saline solution containing 0.1% of albumin to the HPCT concentration of 4.5 μg/0.2 ml.
c) HPCT Cp(1-33) solution: HPCT Cp(1-33) was diluted with the above-mentioned physiological saline solution containing 0.1% of albumine to the HPCT Cp(1-33) concentration of 20 μg/0.2 ml.
d) Swine calcitonin solution: Calcital® for Injection (Yamanouchi Pharmaceutical Co.) containing 160 I.U. of calcitonin per vial was dissolved in 40 ml of a vehicle containing 16% of purified gelatin and 0.5% phenol J. P. and the solution was diluted with the above-mentioned physiological saline solution containing 0.1% of albumin. This dilution contained 0.2 or 1 I.U. of swine calcitonin per 0.2 ml.

For CC[C@H](C)[C@H](NC(=O)[C@H](C)NC(=O)[C@@H](NC(=O)[C@H](CCC(N)=O)NC(=O)[C@@H]1CCCN1C(=O)[C@H](Cc1ccccc1)NC(=O)[C@@H](NC(=O)[C@H](Cc1c[nH]cn1)NC(=O)[C@H](Cc1ccccc1)NC(=O)[C@H](CCCCN)NC(=O)[C@H](CC(N)=O)NC(=O)[C@H](Cc1ccccc1)NC(=O)[C@H](CC(=O)O)NC(=O)[C@H](CCC(N)=O)NC(=O)[C@@H](NC(=O)[C@H](Cc1ccc(O)cc1)NC(=O)[C@@H](NC(=O)CNC(=O)[C@H](CC(C)C)NC(=O)[C@@H](NC(=O)[C@@H]1CSSC[C@H](N)C(=O)NCC(=O)N[C@@H](CC(N)=O)C(=O)N[C@@H](CC(C)C)C(=O)N[C@@H](CO)C(=O)N[C@@H]([C@@H](C)O)C(=O)N1)C(C)C)[C@@H](C)O)[C@@H](C)O)[C@@H](C)O)[C@@H](C)O)C(=O)NCC(=O)N[C@H](C(=O)NCC(=O)N[C@@H](C)C(=O)N1CCC[C@H]1C(=O)NCC(=O)N[C@@H](CCCCN)C(=O)N[C@@H](CCCCN)C(=O)N[C@@H](CCCNC(=N)N)C(=O)O)C(C)C [HPCT] (H-CGNLSTCVLGTYTQDFNKFHTFPQTAIGVGAPGKKR-OH; disulfide 1-7), the “activity equivalent in swine calcitonin” value (4.5 μg of HPCT, rat, subcutaneous, serum calcium time course) was 0.2 I.U, the calcitonin activity (calcium level in the rat blood) was “markedly reducing the calcium level in the rat blood” and the “physiological activity compared with swine calcitonin” value (rat serum calcium, Table 2, not compared in an equal amount) was “stronger physiological activity as compared with swine calcitonin”. For the same compound, the serum calcium level (rat, 4.5 μg subcutaneously, 1 and 2 hours after the administration) was “dropped with statistical significance”, the “Change in serum Ca level” value (rat, 1 hour after administration) was -0.85 mg/dL and the “Change in serum Ca level” value (rat, 2 hours) was -0.64 mg/dL. For the same compound, the “Change in serum Ca level” value (rat, 3 hours) was -0.47 mg/dL and the “Change in serum Ca level” value (rat, 4 hours) was -0.63 mg/dL.
